Columns and labels:
[1] = system: efflux pump of PA-038blaNDM; experiment: Inhibition of efflux pumps: EtBr accumulation/efflux; assay type: cell-based, Pseudomonas aeruginosa; conditions: 8 mg/L of compound
Experimental: The accumulation of EtBr inside the NDM-producing (PA-038blaNDM) P. aeruginosa clinical isolates was monitored as previously described. Briefly, the P. aeruginosa strain was grown in 5 mL of LB medium until it reached the mid-log phase, and the bacteria were centrifuged at 3500 rpm for 15 min. The resulting pellet was washed twice with an equal volume of PBS. The concentration of the bacterial suspension was adjusted (OD600 = 0.3) and added to each well of a flat-bottomed 96-well black plate ([…]). After the addition of glucose (4 µL) to the cellular suspension at a final concentration of 0.4% (w/v), 4 µL of the title compound or positive control CCCP was added to the plate. Finally, EtBr (10 µL) was also added to each well at a final concentration of 1 µg/mL, and the plate was incubated at 37 °C for 60 min, during which time fluorescence emission from EtBr was recorded (λex 480 nm/λem 630 nm) with a 2-min interval, using a Cytation 5 imaging multi-mode reader (BioTek Instruments, Inc., Winooski, VT, USA).

VIM-2 = target: T1, VIM-2 (Escherichia coli, UniProt Q5U7L7); experiment: β-lactamase inhibition, nitrocefin hydrolysis; assay type: biochemical; conditions: nitrocefin substrate; read-out: β-Lactamases, IC50 VIM-2
T1 construct: Genes encoding OXA-48 (residues 23–265) and VIM-2 (residues 27–266) were custom-synthesized; made in house
Excerpt: (§1) Recombinant AmpC from Escherichia coli was produced according to a previously reported protocol. KPC-2 and NDM-1 […] were purchased from LifeSpan Biosciences, Inc. (Lynnwood, WA, USA) (LS-G26598) and RayBiotech, Inc. (Peachtree Corners, GA, USA) (230-00554), respectively. Genes encoding OXA-48 (residues 23–265) and VIM-2 (residues 27–266) were custom-synthesized (Bioneer Inc., Seoul, Republic of Korea) and expressed as previously described. The β-lactamase inhibitory activity of the title compounds was then determined according to the previously reported methods. Briefly, equal volumes (100 μL) of the title compounds (70–0.1 μM in PBS) and diluted enzyme stock were mixed (final concentration 2% of DMSO in 200 μL) in 96-well plates, which were then incubated at 37 °C for 20 min. The incubated mixture was added to each well containing substrates (nitrocefin for AmpC, KPC-2, OXA-48, and VIM-2; and imipenem for NDM-1) of final concentrations of 70 μM for nitrocefin and 100 μM for imipenem. Substrate hydrolysis was monitored at 486 nm (nitrocefin) or 300 nm (imipenem) for 15 min, using a Cytation 5 imaging multimode reader (BioTek Instruments Inc., Winooski, VT, USA). At the plateau level of hydrolysis, the corresponding rates of hydrolysis were compared to those obtained without inhibitors (100%) to determine the percentage of enzyme inhibition at each concentration of the title compounds. The IC50 values of the compounds were derived from sigmoidal dose–response curves, using GraphPad Prism 5 (GraphPad Software, Boston, MA, USA).

AmpC = target: T2, AmpC (Escherichia coli, UniProt P00811); experiment: β-lactamase inhibition, nitrocefin hydrolysis; assay type: biochemical
T2 construct: made in house
Excerpt: as §1

OXA-48 = target: T3, OXA-48 (Klebsiella pneumoniae, UniProt Q6XEC0); experiment: β-lactamase inhibition, nitrocefin hydrolysis; assay type: biochemical; conditions: nitrocefin substrate; read-out: β-Lactamases, IC50 OXA-48
T3 construct: Genes encoding OXA-48 (residues 23–265) and VIM-2 (residues 27–266) were custom-synthesized; made in house
Excerpt: as §1

KPC-2 = target: T4, KPC-2 (Klebsiella pneumoniae, UniProt Q9F663); experiment: β-lactamase inhibition, nitrocefin hydrolysis; assay type: biochemical; conditions: nitrocefin substrate; read-out: β-Lactamases, IC50 KPC-2
T4 construct: purchased LifeSpan Biosciences, Inc. LS-G26598
Excerpt: as §1

NDM-1 = target: T5, NDM-1 (Klebsiella pneumoniae, UniProt C7C422); experiment: β-lactamase inhibition, imipenem hydrolysis; assay type: biochemical; conditions: imipenem substrate; read-out: β-Lactamases, IC50 NDM-1
T5 construct: purchased RayBiotech, Inc. 230-00554
Excerpt: as §1

[2] = system: human liver (HepG2) cell line; experiment: HepG2 cell viability; assay type: cell-based; conditions: up to 64 mg/L, 24 h exposure
Experimental: Concentration of 27 (mg/L)
Figure S1. Cell viability of human hepatoma HepG2 cells presented as percentage of
control after 24 h exposure to different concentrations of 27. The data represent the
average values of three experiments (± SD).

[3] = system: MBL-producing P. aeruginosa clinical isolates; experiment: Broth microdilution checkerboard synergy assay (MIC of ATM in combination); assay type: cell-based, Pseudomonas aeruginosa
ESBLs = system: ESBLs; parameters: method as in PMID 32843653; conditions: cited from earlier work

T5 sequence (C7C422 29-270, looked up, species assumed): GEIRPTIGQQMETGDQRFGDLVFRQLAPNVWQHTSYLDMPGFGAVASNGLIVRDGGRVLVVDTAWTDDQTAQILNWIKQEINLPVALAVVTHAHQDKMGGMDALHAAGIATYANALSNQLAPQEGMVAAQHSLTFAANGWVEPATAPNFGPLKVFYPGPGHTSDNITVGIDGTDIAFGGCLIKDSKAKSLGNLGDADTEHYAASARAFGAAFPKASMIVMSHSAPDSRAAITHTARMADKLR
T2 sequence (P00811 20-377): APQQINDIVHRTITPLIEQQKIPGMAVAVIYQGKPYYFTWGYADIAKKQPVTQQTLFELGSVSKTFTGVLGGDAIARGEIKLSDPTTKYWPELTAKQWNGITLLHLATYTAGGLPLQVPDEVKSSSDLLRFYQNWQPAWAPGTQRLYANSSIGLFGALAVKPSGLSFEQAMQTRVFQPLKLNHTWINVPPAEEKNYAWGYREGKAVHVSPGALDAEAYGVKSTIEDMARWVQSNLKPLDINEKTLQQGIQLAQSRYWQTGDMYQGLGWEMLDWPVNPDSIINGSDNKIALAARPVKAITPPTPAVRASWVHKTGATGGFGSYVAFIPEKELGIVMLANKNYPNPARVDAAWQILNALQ
T3 sequence (Q6XEC0 23-265 limits assumed): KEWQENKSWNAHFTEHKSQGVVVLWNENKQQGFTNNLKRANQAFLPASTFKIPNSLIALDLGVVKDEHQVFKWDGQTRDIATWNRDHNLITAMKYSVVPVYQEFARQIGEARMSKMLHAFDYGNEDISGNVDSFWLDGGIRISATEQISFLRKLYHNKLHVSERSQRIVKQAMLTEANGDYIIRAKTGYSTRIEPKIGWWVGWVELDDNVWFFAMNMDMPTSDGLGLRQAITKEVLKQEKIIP
T4 sequence (Q9F663 25-293, looked up): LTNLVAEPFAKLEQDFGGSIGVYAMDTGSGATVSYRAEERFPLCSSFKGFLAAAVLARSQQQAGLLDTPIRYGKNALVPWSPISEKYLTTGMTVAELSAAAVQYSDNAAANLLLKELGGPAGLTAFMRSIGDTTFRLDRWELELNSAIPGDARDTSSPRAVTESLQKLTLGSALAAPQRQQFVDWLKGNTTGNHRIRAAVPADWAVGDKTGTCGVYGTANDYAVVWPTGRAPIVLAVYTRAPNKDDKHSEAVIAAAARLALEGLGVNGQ

Compound	EtBr fluorescence (accumulation) [1]	IC50 (VIM-2)	IC50 (AmpC)	IC50 (OXA-48)	IC50 (KPC-2)	IC50 (NDM-1)	cytotoxic effects [2]	strains with more than a four-fold MIC reduction (synergistic effect) of ATM ([3]; 21 MBL-producing P. aeruginosa clinical strains, combination with ATM)	MIC ([3]; Pseudomonas aeruginosa, MBL-producing P. aeruginosa clinical isolates, no activity up to this concentration, read-out: antimicrobial activity (MIC) of the compound alone)	inhibition of ESBLs (ESBLs)	concentration at which ATM-potentiating activity was observed ([3]; four representative MBL-producing P. aeruginosa strains (Table 2))
N#CC(C#N)=NNc1cccc(Cl)c1 [CCCP, carbonyl cyanide 3-chlorophenylhydrazone]	became stronger	–	–	–	–	–	–	–	–	–	–
O=c1c(OCCC2CCCCC2)c(-c2ccc(F)c(F)c2)oc2cc(O)cc(O)c12 [Compound 27]	significant increase in EtBr accumulation	4.4 µM	15.3 µM	6.3 µM	11.3 µM	10.1 µM	no cytotoxic effects	19 out of 21	> 512 µg/mL	–	–
O=c1c(O)c(-c2ccc(F)c(F)c2)oc2cc(O)cc(O)c12 [Compound 1, 3′,4′-difluoroquercetin]	as potent as CCCP	> 100 µM	> 50 µM	> 100 µM	> 50 µM	> 50 µM	–	–	–	not to inhibit ESBLs	8 to 16 mg/L
O=c1c(OCCC2CCCC2)c(-c2ccc(F)c(F)c2)oc2cc(O)cc(O)c12 [Compound 26]	significant increase in EtBr accumulation	9 µM	21 µM	8 µM	11.5 µM	15.9 µM	–	–	–	–	–
CC(C)(C)CCOc1c(-c2ccc(F)c(F)c2)oc2cc(O)cc(O)c2c1=O [Compound 23]	significant increase in EtBr accumulation	11.9 µM	18.9 µM	14.8 µM	17.3 µM	11.4 µM	–	–	–	–	–

Reference: paper PMC10892423 (Pharmaceutics, 2024)
